Experiments:
Experiment in all cases: relative viability (nuclei count vs DMSO), 5 days (fraction); higher = more cells survive
[1] = compound: CC[C@@H](C)CNCC(=O)N1CCC2=C([C@@H]1COC3=CC=CC(=C3)C)C=CS2 [RU-SKI 43] + CC(=O)c1c(C)c2cnc(Nc3ccc(N4CCNCC4)cn3)nc2n(C2CCCC2)c1=O [Palbociclib] (partner 0.5 µM)
In short: (§1)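 Dosing by pin tool came one day after lung cancer cell lines were seeded in 1536-well plates, using either one drug or a fixed anchor-drug dose plus five library-drug doses (not always all listed) in √10 steps. After 5 days, nuclei were counted on 4× images. Relative viability is treated-well nuclei count divided by vehicle-well nuclei count, and values are medians of duplicate plates.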

[2] = compound: CCc1c2c(nc3ccc(OC(=O)N4CCC(N5CCCCC5)CC4)cc13)-c1cc3c(c(=O)n1C2)COC(=O)[C@]3(O)CC [Irinotecan] + CC(=O)Nc1cccc(-n2c(=O)n(C3CC3)c(=O)c3c(Nc4ccc(I)cc4F)n(C)c(=O)c(C)c32)c1 [Trametinib] (partner 0.02 µM)
In short: as §1

[3] = compound: CCc1c2c(nc3ccc(OC(=O)N4CCC(N5CCCCC5)CC4)cc13)-c1cc3c(c(=O)n1C2)COC(=O)[C@]3(O)CC [Irinotecan] + Cc1nc(NC(=O)N2CCC[C@H]2C(N)=O)sc1-c1ccnc(C(C)(C)C(F)(F)F)c1 [Alpelisib] (partner 2 µM)
In short: as §1

[4] = compound: Cn1cc(-c2cnc3ccc4ccc(CS(=O)(=O)NCc5ccccn5)cc4c(=O)c3c2)cn1 [MK-8033] + CCNC(=O)c1noc(-c2cc(C(C)C)c(O)cc2O)c1-c1ccc(CN2CCOCC2)cc1 [Luminespib] (partner 0.01 µM)
In short: as §1

Row | Cell Line | relative viability ([1]; first compound 0.1 µM) | relative viability ([1]; first compound 0.3162 µM) | relative viability ([1]; first compound 1 µM) | relative viability ([1]; first compound 3.162 µM) | relative viability ([1]; first compound 10 µM) | relative viability ([2]; first compound 0.6325 µM) | relative viability ([2]; first compound 2 µM) | relative viability ([2]; first compound 6.325 µM) | relative viability ([2]; first compound 20 µM) | relative viability ([3]; first compound 0.6325 µM) | relative viability ([3]; first compound 2 µM) | relative viability ([3]; first compound 6.325 µM) | relative viability ([3]; first compound 20 µM) | relative viability ([4]; first compound 0.02 µM) | relative viability ([4]; first compound 0.06325 µM) | relative viability ([4]; first compound 0.2 µM) | relative viability ([4]; first compound 0.6325 µM) | relative viability ([4]; first compound 2 µM)
1 | NCI-H1651 | 0.522 | 0.533 | 0.532 | 0.537 | 0.542 | 0.831 | 0.657 | 0.419 | 0.134 | 0.862 | 0.705 | 0.246 | 0.205 | 1.02 | 0.846 | 0.733 | 0.853 | 0.874
2 | NCI-H1355 | 0.405 | 0.381 | 0.358 | 0.42 | 0.389 |  | 0.399 | 0.239 | 0.22 | 0.711 | 0.4 | 0.222 | 0.237 | 0.695 | 0.686 | 0.607 | 0.74 | 0.646
3 | NCI-H1563 |  |  |  |  |  |  |  |  |  | 0.86 | 0.912 | 0.875 | 0.654 | 0.491 | 0.589 | 0.541 | 0.483 | 0.539
4 | NCI-H1650 | 0.375 | 0.346 | 0.338 | 0.351 | 0.302 | 0.484 | 0.526 | 0.45 | 0.125 |  |  |  |  | 0.193 | 0.205 | 0.204 | 0.203 | 0.181
5 | HCC-78 | 0.43 | 0.408 | 0.533 | 0.461 | 0.503 | 0.882 | 0.716 | 0.31 | 0.262 | 0.38 | 0.248 | 0.195 | 0.211 |  |  |  |  | 
6 | NCI-H1437 | 0.32 | 0.294 | 0.348 | 0.31 | 0.246 | 0.477 | 0.524 | 0.239 | 0.157 | 0.75 | 0.67 | 0.262 | 0.147 | 1.11 | 1 | 1.05 | 1.08 | 1.04
7 | BEN | 0.489 | 0.468 | 0.523 | 0.46 | 0.451 | 1.2 | 0.769 | 0.503 | 0.556 | 1.11 | 0.771 | 0.319 | 0.372 | 0.382 | 0.419 | 0.331 | 0.295 | 0.455
8 | LCLC-103H | 0.525 | 0.453 | 0.471 | 0.495 | 0.496 | 0.655 | 0.603 | 0.463 | 0.479 | 0.812 | 0.345 | 0.33 | 0.368 | 0.95 | 0.927 | 0.954 | 0.866 | 0.952
9 | NCI-H1915 | 0.51 | 0.543 | 0.559 | 0.541 | 0.525 | 0.25 | 0.175 | 0.122 | 0.127 | 0.3 | 0.217 | 0.164 | 0.155 | 0.728 | 0.8 | 0.676 | 0.827 | 0.668
10 | NCI-H2085 | 0.514 | 0.444 | 0.467 | 0.48 | 0.461 | 0.521 | 0.397 | 0.32 | 0.252 | 0.888 | 0.75 | 0.458 | 0.482 | 0.471 | 0.483 | 0.378 | 0.447 | 0.415
11 | EBC-1 |  |  |  |  |  |  |  |  |  | 0.621 | 0.387 | 0.385 | 0.161 |  |  |  |  | 
12 | A549 |  |  |  |  |  |  |  |  |  | 0.776 | 0.642 | 0.207 | 0.0613 |  |  |  |  | 
13 | SW 900 | 0.542 | 0.513 | 0.522 | 0.522 | 0.45 |  | 0.522 | 0.275 | 0.284 |  |  |  |  | 0.147 | 0.175 | 0.177 | 0.18 | 0.187
14 | NCI-H1623 |  |  |  |  |  |  |  |  |  |  |  |  |  | 0.4 | 0.479 | 0.429 | 0.498 | 0.363
15 | IA-LM |  |  |  |  |  |  |  |  |  | 0.614 | 0.408 | 0.189 | 0.0631 |  |  |  |  | 
16 | NCI-H596 |  |  |  |  |  | 0.86 | 0.731 | 0.682 | 0.758 | 0.639 | 0.548 | 0.483 | 0.557 | 1.02 | 0.987 | 0.802 | 1.01 | 0.946
17 | NCI-H1648 | 0.284 | 0.26 | 0.257 | 0.304 | 0.271 | 0.441 | 0.383 | 0.299 | 0.323 |  |  |  |  |  |  |  |  | 
18 | ChaGo-K-1 | 0.919 | 1.05 | 1 | 0.976 | 0.956 | 0.296 | 0.24 | 0.21 | 0.221 |  |  |  |  | 0.679 | 0.696 | 0.562 | 0.636 | 0.516
19 | NCI-H1299 |  |  |  |  |  |  |  |  |  | 0.919 | 0.918 | 0.801 | 0.36 |  |  |  |  | 
20 | HCC-366 | 0.274 | 0.447 | 0.416 | 0.396 | 0.264 | 0.266 | 0.184 | 0.0834 | 0.0768 | 0.404 | 0.187 | 0.0425 | 0.0448 |  |  |  |  | 
21 | NCI-H1703 |  |  |  |  |  |  |  |  |  | 0.305 | 0.482 | 0.385 | 0.136 |  |  |  |  | 
22 | NCI-H2342 | 0.524 |  | 0.547 | 0.524 | 0.488 | 0.872 | 0.89 | 0.786 | 0.494 |  |  |  |  | 0.774 | 0.643 | 0.805 | 0.631 | 0.651
23 | ABC-1 | 0.517 | 0.824 | 0.719 | 0.866 | 0.636 |  |  |  |  |  | 0.654 | 0.439 | 0.362 | 0.544 | 0.545 |  | 0.602 | 0.473
24 | NCI-H522 | 1.22 | 1.08 | 1.18 | 1.29 | 0.977 | 0.67 | 0.599 | 0.517 | 0.476 |  |  |  |  | 0.987 | 1.02 | 0.955 | 1.29 | 0.946
25 | Calu-6 |  |  |  |  |  |  |  |  |  | 0.826 | 0.543 | 0.291 | 0.119 |  |  |  |  | 
